pEC50: −log10 of the molar value. Activity calls are given as the source filed them.
These compounds were tested against T1, Cystic fibrosis transmembrane conductance regulator (Homo sapiens, UniProt P13569) (assay: (§1) Potentiator activity at CFTR F508del mutant (unknown origin) expressed in human CFBE41o cells assessed as increase in iodine influx measured after 30 mins incubation following rescue of F508del-CFTR by low temperature for 24 hrs by HS-YFP assay). Conditions: cfbe41o.
Type: cell-based

T1 sequence (P13569 as listed by the source): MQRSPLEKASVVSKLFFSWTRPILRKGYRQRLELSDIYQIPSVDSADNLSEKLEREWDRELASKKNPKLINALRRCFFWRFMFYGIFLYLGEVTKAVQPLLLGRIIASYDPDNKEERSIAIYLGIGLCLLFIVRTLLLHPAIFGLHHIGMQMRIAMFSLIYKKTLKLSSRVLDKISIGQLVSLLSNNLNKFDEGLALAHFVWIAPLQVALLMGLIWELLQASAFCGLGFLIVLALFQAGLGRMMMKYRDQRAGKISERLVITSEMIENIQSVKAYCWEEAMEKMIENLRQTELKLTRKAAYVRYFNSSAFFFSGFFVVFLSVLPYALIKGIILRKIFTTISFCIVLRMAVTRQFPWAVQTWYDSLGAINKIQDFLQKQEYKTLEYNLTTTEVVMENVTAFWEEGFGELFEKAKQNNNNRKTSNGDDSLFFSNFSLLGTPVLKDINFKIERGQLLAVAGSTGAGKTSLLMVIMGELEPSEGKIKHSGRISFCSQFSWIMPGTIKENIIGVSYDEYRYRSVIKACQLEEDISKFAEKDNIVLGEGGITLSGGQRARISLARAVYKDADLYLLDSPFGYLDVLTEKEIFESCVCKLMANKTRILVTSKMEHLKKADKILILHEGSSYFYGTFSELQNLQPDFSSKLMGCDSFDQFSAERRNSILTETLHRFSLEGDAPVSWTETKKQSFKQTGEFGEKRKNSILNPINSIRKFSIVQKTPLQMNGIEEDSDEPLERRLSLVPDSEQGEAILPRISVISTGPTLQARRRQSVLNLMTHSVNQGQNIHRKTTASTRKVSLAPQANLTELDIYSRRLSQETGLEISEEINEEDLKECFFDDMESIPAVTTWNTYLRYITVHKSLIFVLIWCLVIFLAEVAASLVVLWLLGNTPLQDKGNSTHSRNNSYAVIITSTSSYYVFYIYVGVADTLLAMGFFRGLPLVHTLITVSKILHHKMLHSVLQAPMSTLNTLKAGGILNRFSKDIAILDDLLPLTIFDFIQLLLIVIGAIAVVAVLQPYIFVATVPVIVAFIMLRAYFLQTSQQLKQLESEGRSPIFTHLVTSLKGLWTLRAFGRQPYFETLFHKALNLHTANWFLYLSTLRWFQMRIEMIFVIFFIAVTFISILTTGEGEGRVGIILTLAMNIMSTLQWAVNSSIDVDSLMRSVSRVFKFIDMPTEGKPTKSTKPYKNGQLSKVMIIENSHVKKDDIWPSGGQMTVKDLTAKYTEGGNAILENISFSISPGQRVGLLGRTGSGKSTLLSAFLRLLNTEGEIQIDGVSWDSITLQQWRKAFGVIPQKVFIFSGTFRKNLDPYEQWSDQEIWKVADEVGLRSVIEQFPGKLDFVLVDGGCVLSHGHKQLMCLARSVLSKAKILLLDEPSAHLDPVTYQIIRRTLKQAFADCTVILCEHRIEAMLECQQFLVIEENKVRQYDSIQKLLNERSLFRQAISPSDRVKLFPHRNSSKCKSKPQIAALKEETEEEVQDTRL

Structure (SMILES) | EC50
CSc1cccc(Nc2nc(-c3ccc(F)c(Br)c3)cs2)c1 | Not Active
CSc1cccc(Nc2nc(-c3cc(Cl)cc(C(F)(F)F)c3)cs2)c1 | Not Active

These compounds were tested against Cystic fibrosis transmembrane conductance regulator (Homo sapiens, UniProt P13569, F508DEL) (assay: as §1). Conditions: not given.
Chain of Cystic fibrosis transmembrane conductance regulator (Homo sapiens, UniProt P13569, F508DEL) (P13569 as listed by the source): as above
Type: cell-based

Structure (SMILES) | pEC50
CSc1cccc(Nc2nc(-c3ccc(F)cc3)cs2)c1 | 4.57
CSc1cccc(Nc2nc(-c3ccc(C#N)cc3)cs2)c1 | 4.47
CSc1cccc(Nc2nc(-c3ccc4c(c3)OCO4)cs2)c1 | 4.15
CSc1cccc(Nc2nc(-c3nccs3)cs2)c1 | 5.02
CSc1cccc(Nc2nc(-c3cc(Cl)cs3)cs2)c1 | 4.82

These compounds were tested against T1, Cystic fibrosis transmembrane conductance regulator (assay: Corrector activity at CFTR F508del mutant (unknown origin) expressed in human CFBE41o cells assessed as iodide influx after 24 hrs by HS-YFP assay). Conditions: cfbe41o.
Type: cell-based

Structure (SMILES) | EC50
CSc1cccc(Nc2nc(-c3ccc(F)cc3)cs2)c1 | Not Active
CSc1cccc(Nc2nc(-c3ccc(C#N)cc3)cs2)c1 | Not Active
CSc1cccc(Nc2nc(-c3ccc4c(c3)OCO4)cs2)c1 | Not Active
CSc1cccc(Nc2nc(-c3nccs3)cs2)c1 | Not Active
CSc1cccc(Nc2nc(-c3cc(Cl)cs3)cs2)c1 | Not Active

What follows are compounds tested on Cystic fibrosis transmembrane conductance regulator (Homo sapiens), P13569 [F508del] (assay: Corrector activity at CFTR F508del mutant (unknown origin) expressed in human CFBE41o cells assessed as iodide influx at 10 uM after 24 hrs by HS-YFP assay). Conditions: not given.
Chain of Cystic fibrosis transmembrane conductance regulator (Homo sapiens), P13569 [F508del] (P13569 as listed by the source): as above
Type: cell-based

Structure (SMILES) | Activity
CSc1cccc(Nc2nc(-c3ccc(Cl)cc3)c(-c3ccc(C)cc3)s2)c1 | inactive
CSc1cccc(Nc2nc(-c3cnc(CS(=O)(=O)c4ccccn4)s3)cs2)c1 | inactive
CSc1cccc(Nc2nc(-c3cccc([N+](=O)[O-])c3)cs2)c1 | inactive
CSc1cccc(Nc2nc(-c3ccccc3Cl)cs2)c1 | inactive
CSc1cccc(Nc2nc(-c3ccc(F)c(Br)c3)cs2)c1 | Active
CSc1cccc(Nc2nc(-c3ccc(F)cc3)cs2)c1 | inactive
CSc1cccc(Nc2nc(-c3ccccc3C)cs2)c1 | inactive
CSc1cccc(Nc2nc(-c3cc(Cl)cc(C(F)(F)F)c3)cs2)c1 | Active
CSc1cccc(Nc2nc(-c3ccsc3)cs2)c1 | inactive
CSc1cccc(Nc2nc(-c3c(-c4ccccc4)noc3C)cs2)c1 | inactive
CSc1cccc(Nc2nc(-c3ccc(Br)c([N+](=O)[O-])c3)cs2)c1 | inactive
CSc1cccc(N(C)c2nc(-c3cccc(Cl)c3)cs2)c1 | inactive
CSc1cccc(Nc2nc(-c3nnn(-c4cc(Cl)cc(Cl)c4)c3C)cs2)c1 | inactive
CSc1cccc(Nc2nc(-c3cccc(C)c3)cs2)c1 | inactive
CSc1cccc(Nc2nc(-c3ccc4c(c3)NC(=O)CS4)cs2)c1 | inactive
CSc1cccc(Nc2nc(-c3ccc(CCCl)cc3)cs2)c1 | inactive
CSc1cccc(Nc2nc(-c3ccc(O)c(O)c3)cs2)c1 | inactive
CSc1cccc(Nc2nc(-c3ccc4c(c3)ncn4C)cs2)c1 | inactive
CSc1cccc(Nc2nc(-c3cccc(Br)c3)cs2)c1 | Active
CSc1cccc(Nc2nc(-c3cc(Cl)cc(Cl)c3F)cs2)c1 | inactive
CSc1cccc(Nc2nc(C)cs2)c1 | inactive
CSc1cccc(Nc2nc(-c3cccc(OCC(=O)OC(C)(C)C)c3)cs2)c1 | inactive
CSc1cccc(Nc2nc(-c3cc4ccccc4oc3=O)cs2)c1 | inactive
COc1ccc(-c2csc(Nc3cccc(SC)c3)n2)c(OC)c1 | inactive
CSc1cccc(Nc2nc(-c3cnc4ccccc4c3)cs2)c1 | inactive
CSc1cccc(Nc2nc(-c3ccc(S(C)(=O)=O)cc3)cs2)c1 | inactive

Structure (SMILES) | Activity
CSc1cccc(Nc2nc(-c3ccc(Cl)c([N+](=O)[O-])c3)cs2)c1 | inactive
CSc1cccc(Nc2nc(-c3cccc(Cl)c3)c(C)s2)c1 | inactive
CSc1cccc(Nc2nc(-c3ccc4sccc4c3)cs2)c1 | Active
CSc1cccc(Nc2nc(-c3cc(-c4ccc(Cl)cc4)no3)cs2)c1 | inactive
CSc1cccc(Nc2nc(-c3ccc(C)cc3C)cs2)c1 | inactive
CCCCCc1csc(-c2csc(Nc3cccc(SC)c3)n2)c1 | inactive
CCCCCc1ccc(-c2csc(Nc3cccc(SC)c3)n2)cc1 | inactive
Brc1ccc(-c2csc(NCc3ccccc3)n2)cc1 | inactive
CSc1cccc(Nc2nc(-c3ccccc3)c(C(=O)c3ccccc3)s2)c1 | inactive
CSc1cccc(Nc2nc(-c3nc4ccccc4n3C)cs2)c1 | inactive
CCSc1cccc(Nc2nc(-c3cccc(Cl)c3)cs2)c1 | inactive
CSc1cccc(Nc2nc(-c3nc(C)cs3)cs2)c1 | inactive
CSc1cccc(Nc2nc(-c3cccc(F)c3)cs2)c1 | inactive
CSc1cccc(Nc2nc(CC(=O)Nc3ccccc3)cs2)c1 | inactive
CSc1cccc(Nc2nc(-c3cc(Cl)c(O)c(Cl)c3)cs2)c1 | Active
CSc1cccc(Nc2nc(-c3cccc(I)c3)cs2)c1 | inactive
Brc1ccc(-c2csc(N3CCCCC3)n2)cc1 | inactive
CSc1cccc(Nc2nc(-c3ccco3)cs2)c1 | inactive
CSc1cccc(Nc2nc(-c3cn(-c4ccccc4)c(C)n3)cs2)c1 | inactive
CSc1cccc(Nc2nc(-c3cc(C)n(-c4ccc(Cl)cc4)c3C)cs2)c1 | inactive
CC(=O)Oc1ccccc1C(=O)Nc1nc(-c2ccc(Br)cc2)cs1 | inactive
CSc1cccc(Nc2nc(-c3ccccn3)cs2)c1 | inactive
CSc1cccc(Nc2nc(-c3cccc(NC(C)=O)c3)cs2)c1 | inactive
CSc1cccc(Nc2nc(-c3ccc(F)c(Cl)c3)cs2)c1 | Active
CSc1cccc(Nc2nc(-c3ccc(Cl)c(C)c3)cs2)c1 | inactive
CSc1cccc(Nc2nc(-c3cc(C)cs3)cs2)c1 | inactive

Structure (SMILES) | Activity
CSc1cccc(N(Cc2ccccc2)c2nc(-c3cccc(Cl)c3)cs2)c1 | inactive
CSc1cccc(Nc2nc(-c3ccc4c(c3)OCCO4)cs2)c1 | inactive
CSc1cccc(Nc2nc(-c3cc(F)cc(Cl)c3)cs2)c1 | inactive
O=C(Nc1nc(-c2ccc(Br)cc2)cs1)c1ccncc1 | inactive
CSc1cccc(Nc2nc(-c3cc(OC(C)=O)c(OC(C)=O)c(OC(C)=O)c3)cs2)c1 | inactive
CSc1cccc(Nc2nc(-c3cc(Br)ccc3O)cs2)c1 | inactive
CSc1cccc(Nc2nc(-c3cccc(C(F)(F)F)c3)cs2)c1 | inactive
CSc1cccc(Nc2nc(Cc3ccc(Br)cc3)cs2)c1 | inactive
CSc1cccc(Nc2nc(-c3nc4ccccc4s3)cs2)c1 | inactive
CSc1cccc(Nc2nc(-c3cc(Cl)ccc3O)cs2)c1 | Active
Nc1nc(-c2ccc(Br)cc2)cs1 | inactive
CSc1cccc(Nc2nc(-c3ccc(CC(F)(F)F)cc3)cs2)c1 | inactive
CSc1cccc(Nc2nc(-c3ccc(Cl)cc3Cl)cs2)c1 | inactive
CSc1cccc(Nc2nc(-c3cc(C(C)(C)C)c(O)c(C(C)(C)C)c3)cs2)c1 | inactive
CSc1cccc(Nc2nc(-c3cccnc3)cs2)c1 | inactive
CSc1cccc(Nc2nc(-c3cc(Cl)cc(OC(F)(F)F)c3)cs2)c1 | inactive
CSc1cccc(Nc2nc(-c3ccc(C#N)cc3)cs2)c1 | inactive
CCN(CC)c1ccc(-c2csc(Nc3cccc(SC)c3)n2)cc1 | inactive
Sc1cccc(Nc2nc(-c3cccc(Cl)c3)cs2)c1 | inactive
CSc1cccc(Nc2nc(-c3ccc4c(c3)C(C)(C)CCC4(C)C)cs2)c1 | inactive
CSc1cccc(Nc2nc3ccc(Br)cc3s2)c1 | inactive
CSc1cccc(Nc2nc(-c3ccc(Br)cc3)c(C)s2)c1 | inactive
CSc1cccc(Nc2nc(-c3cccc(Cl)c3Cl)cs2)c1 | inactive
COc1cc2c(cc1OC)CN(c1csc(Nc3cccc(SC)c3)n1)CC2 | inactive
Brc1ccc(-c2csc(N(Cc3ccccc3)Cc3ccccc3)n2)cc1 | inactive
Brc1ccc(-c2csc(NC3CCCCC3)n2)cc1 | inactive

Structure (SMILES) | Activity
CCCSc1cccc(Nc2nc(-c3cccc(Cl)c3)cs2)c1 | inactive
CSc1cccc(Nc2nc(-c3ccc(C(F)(F)F)cc3)cs2)c1 | inactive
CSc1cccc(Nc2nc(-c3ccc4c(c3)OCCCO4)cs2)c1 | inactive
CSc1cccc(Nc2nc(-c3ccc4c(c3)OCO4)cs2)c1 | inactive
O=C(Nc1nc(-c2ccc(Br)cc2)cs1)c1ccccc1 | inactive
COc1ccc(-c2csc(Nc3cccc(SC)c3)n2)cc1 | inactive
O=C(Nc1nc(-c2ccc(Br)cc2)cs1)c1ccccc1O | inactive
CSc1cccc(Nc2nc(-c3ccccc3)c(C)s2)c1 | inactive
COc1ccccc1-c1csc(Nc2cccc(SC)c2)n1 | inactive
CSc1cccc(Nc2nc(-c3c(Cl)ccc(F)c3Cl)cs2)c1 | inactive
CCc1ccc(Nc2nc(-c3cccc(Cl)c3)cs2)cc1SC | Active
CSc1cccc(Nc2nc(-c3cc(OCC(=O)O)c(OCC(=O)O)c(OCC(=O)O)c3)cs2)c1 | inactive
CSc1cccc(Nc2nc(-c3ccc([N+](=O)[O-])cc3)cs2)c1 | inactive
CSc1cccc(Nc2nc(-c3cc(Cl)cc(Cl)c3O)cs2)c1 | inactive
CSc1cccc(Nc2nc(-c3cccc(OCC(=O)O)c3)cs2)c1 | inactive
CSc1cccc(Nc2nc(-c3cccc(SC)c3)cs2)c1 | inactive
CSc1cccc(Nc2nc(-c3cc(Cl)ccc3Cl)cs2)c1 | inactive
COc1ccc(-c2csc(Nc3cccc(SC)c3)n2)cc1Cl | inactive
CCCOc1ccc(-c2csc(Nc3cccc(SC)c3)n2)cc1 | inactive
CSc1cccc(Nc2nc(-c3nccs3)cs2)c1 | inactive
CSc1cccc(Nc2nc(-c3ccc(-c4ccccn4)s3)cs2)c1 | inactive
CSc1cccc(Nc2nc(-c3cc(Cl)cs3)cs2)c1 | inactive
CSc1cccc(Nc2nc(-c3cccc(O)c3)cs2)c1 | inactive
CSc1cccc(Nc2nc(-c3cc4ccccc4o3)cs2)c1 | inactive

From ChEMBL document CHEMBL3596188, “Synthesis and structure-activity relationship of aminoarylthiazole derivatives as correctors of the chloride transport defect in cystic fibrosis” (Eur J Med Chem, 2015)
